# pIC50: −log10 of the molar value. The source made the active and inactive calls. The calls are words filed in the database; no cut-off is given here.
# Assays:
# HEK293 [1] = experiment: Cytotoxicity against HEK293 cells at low concentration incubated for 48 hrs in presence of 4-(4-(3-(4-chloro-3-(trifluoromethyl)phenyl)ureido)phenoxy)-N-(prop-2-yn-1-yl)picolinamide by MTT assay; type: toxicity, cell-based; conditions: human, hek293, 48 h
# [2] = target: Platelet-derived growth factor receptor beta (Homo sapiens) (UniProt P09619); experiment: Induction of PDGFR-beta degradation in human U87 cells at 10 uM incubated for 48 hrs in presence of 4-(4-(3-(4-chloro-3-(trifluoromethyl)phenyl)ureido)phenoxy)-N-(prop-2-yn-1-yl)picolinamide by Western blot analysis; type: cell-based
# Sequence of Platelet-derived growth factor receptor beta (Homo sapiens) (P09619 whole entry): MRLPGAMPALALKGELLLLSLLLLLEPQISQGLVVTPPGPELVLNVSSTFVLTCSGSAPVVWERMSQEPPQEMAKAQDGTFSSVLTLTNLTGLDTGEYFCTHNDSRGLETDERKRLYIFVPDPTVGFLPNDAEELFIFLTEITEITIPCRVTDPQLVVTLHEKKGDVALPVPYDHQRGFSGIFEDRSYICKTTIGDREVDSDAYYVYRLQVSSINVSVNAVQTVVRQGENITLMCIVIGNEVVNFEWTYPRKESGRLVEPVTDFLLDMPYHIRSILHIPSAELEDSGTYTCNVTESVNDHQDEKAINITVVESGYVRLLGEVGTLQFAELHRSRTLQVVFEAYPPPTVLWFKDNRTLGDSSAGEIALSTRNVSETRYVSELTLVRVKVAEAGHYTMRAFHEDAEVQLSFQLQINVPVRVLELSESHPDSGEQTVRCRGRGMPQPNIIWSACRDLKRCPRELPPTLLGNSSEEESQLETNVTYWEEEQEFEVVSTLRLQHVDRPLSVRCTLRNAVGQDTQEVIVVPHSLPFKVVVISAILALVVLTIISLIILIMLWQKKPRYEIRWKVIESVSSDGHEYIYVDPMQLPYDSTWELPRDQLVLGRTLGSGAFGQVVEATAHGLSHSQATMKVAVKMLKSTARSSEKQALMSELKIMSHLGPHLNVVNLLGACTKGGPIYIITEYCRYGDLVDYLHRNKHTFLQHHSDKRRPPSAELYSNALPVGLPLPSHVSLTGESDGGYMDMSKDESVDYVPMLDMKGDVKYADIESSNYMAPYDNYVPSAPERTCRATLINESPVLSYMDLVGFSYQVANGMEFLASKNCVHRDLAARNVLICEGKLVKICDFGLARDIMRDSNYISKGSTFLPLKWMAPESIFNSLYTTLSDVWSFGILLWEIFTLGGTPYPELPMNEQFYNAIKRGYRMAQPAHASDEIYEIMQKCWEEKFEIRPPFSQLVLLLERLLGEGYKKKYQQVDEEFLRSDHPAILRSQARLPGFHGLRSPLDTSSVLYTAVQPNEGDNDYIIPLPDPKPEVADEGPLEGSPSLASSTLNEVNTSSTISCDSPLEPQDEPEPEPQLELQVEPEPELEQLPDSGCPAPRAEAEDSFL
# U-87 MG [3] = experiment: Induction of apoptosis in human U87 cells assessed as early apoptotic cells at 0.1 uM incubated for 48 hrs in presence of 4-(4-(3-(4-chloro-3-(trifluoromethyl)phenyl)ureido)phenoxy)-N-(prop-2-yn-1-yl)picolinamide by Annexin V-FLTC/PI staining based flow cytometry (reference value: 8.95 %); type: functional, U-87MG ATCC
# U-87 MG [4] = experiment: Induction of apoptosis in human U87 cells assessed as viable cells at 10 uM incubated for 48 hrs in presence of 4-(4-(3-(4-chloro-3-(trifluoromethyl)phenyl)ureido)phenoxy)-N-(prop-2-yn-1-yl)picolinamide by Annexin V-FLTC/PI staining based flow cytometry (reference value: 86.74 %); type: functional, U-87MG ATCC; conditions: read-out: Activity
# U-87 MG [5] = experiment: Antiproliferative activity against human U87 cells incubated for 48 hrs in presence of 4-azido-N-(2-(2,6-dioxopiperidin-3-yl)-1,3-dioxoisoindolin-4-yl)butanamide by MTT assay; type: functional, cell-based, U-87MG ATCC
# U-87 MG [6] = experiment: Antiproliferative activity against human U87 cells incubated for 48 hrs in presence of (2S,4R)-1-((S)-2-(5-azidopentanamido)-3,3-dimethylbutanoyl)-4-hydroxy-N-(4-(4-methylthiazol-5-yl)benzyl)pyrrolidine-2-carboxamide by MTT assay; type: functional, cell-based, U-87MG ATCC
# HEK293 [7] = experiment: Cytotoxicity against HEK293 cells at low concentration incubated for 48 hrs in presence of 4-azido-N-(2-(2,6-dioxopiperidin-3-yl)-1,3-dioxoisoindolin-4-yl)butanamide by MTT assay; type: toxicity, cell-based; conditions: human, hek293, 48 h
# HEK293 [8] = experiment: Cytotoxicity against HEK293 cells at high concentration incubated for 48 hrs in presence of (2S,4R)-1-((S)-2-(5-azidopentanamido)-3,3-dimethylbutanoyl)-4-hydroxy-N-(4-(4-methylthiazol-5-yl)benzyl)pyrrolidine-2-carboxamide by MTT assay; type: toxicity, cell-based; conditions: human, hek293, 48 h
# [9] = target: T1, Ephrin type-B receptor 4 (Homo sapiens) (UniProt P54760); experiment: Induction of EphB4 degradation in human U87 cells at 10 uM incubated for 48 hrs in presence of 4-azido-N-(2-(2,6-dioxopiperidin-3-yl)-1,3-dioxoisoindolin-4-yl)butanamide by Western blot analysis; type: cell-based
# T1 sequence (whole entry): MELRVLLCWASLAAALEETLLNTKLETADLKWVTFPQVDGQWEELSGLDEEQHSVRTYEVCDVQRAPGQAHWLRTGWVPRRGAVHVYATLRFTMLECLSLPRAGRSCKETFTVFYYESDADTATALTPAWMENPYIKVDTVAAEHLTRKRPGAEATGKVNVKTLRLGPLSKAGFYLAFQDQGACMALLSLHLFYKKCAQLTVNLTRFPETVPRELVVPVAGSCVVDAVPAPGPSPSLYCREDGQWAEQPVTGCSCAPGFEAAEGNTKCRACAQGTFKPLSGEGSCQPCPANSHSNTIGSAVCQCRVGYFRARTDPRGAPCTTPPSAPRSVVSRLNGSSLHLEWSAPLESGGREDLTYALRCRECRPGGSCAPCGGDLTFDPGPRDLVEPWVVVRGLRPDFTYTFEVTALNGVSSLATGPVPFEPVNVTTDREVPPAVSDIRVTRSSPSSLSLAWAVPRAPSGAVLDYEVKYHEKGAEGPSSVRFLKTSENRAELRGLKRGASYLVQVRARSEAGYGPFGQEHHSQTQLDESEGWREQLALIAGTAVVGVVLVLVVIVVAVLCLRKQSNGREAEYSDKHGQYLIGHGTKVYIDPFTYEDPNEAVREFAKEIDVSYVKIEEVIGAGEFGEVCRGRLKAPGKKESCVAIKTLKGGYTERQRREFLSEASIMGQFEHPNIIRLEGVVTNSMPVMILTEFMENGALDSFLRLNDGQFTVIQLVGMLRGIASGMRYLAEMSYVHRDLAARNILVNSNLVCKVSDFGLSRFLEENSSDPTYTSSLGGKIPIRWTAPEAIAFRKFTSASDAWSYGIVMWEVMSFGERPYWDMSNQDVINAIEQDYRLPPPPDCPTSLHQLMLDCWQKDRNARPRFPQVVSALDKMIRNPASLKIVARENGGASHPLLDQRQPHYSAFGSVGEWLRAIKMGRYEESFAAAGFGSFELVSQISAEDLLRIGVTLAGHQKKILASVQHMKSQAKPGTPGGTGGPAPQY
# U-87 MG [10] = experiment: Induction of apoptosis in human U87 cells assessed as necrotic cells at 1 uM incubated for 48 hrs in presence of (2S,4R)-1-((S)-2-(5-azidopentanamido)-3,3-dimethylbutanoyl)-4-hydroxy-N-(4-(4-methylthiazol-5-yl)benzyl)pyrrolidine-2-carboxamide by Annexin V-FLTC/PI staining based flow cytometry (reference value: 0.60 %); type: functional, U-87MG ATCC
Activity [2],pIC50 (U-87 MG [5]),pIC50 (U-87 MG [6]),Activity [9],SMILES,Activity (HEK293 [1]),Activity (U-87 MG [3]),viability at 10 µM (U-87 MG [4]),Activity (HEK293 [7]),Activity (HEK293 [8]),Activity (U-87 MG [10])
Active,,,,[N-]=[N+]=NCCCC(=O)Nc1cccc2c1C(=O)N(C1CCC(=O)NC1=O)C2=O (stereo not given),Non-Toxic,10.27%,1.74%,,,
,5.25,4.80,Active,C#CCNC(=O)c1cc(Oc2ccc(NC(=O)Nc3ccc(Cl)c(C(F)(F)F)c3)cc2)ccn1,,,,Non-Toxic,Toxic,1.26%
